Data: patent US11098041B2 (Merck Patent GmbH, priority 2014, dated 2021)

Tests used:
full-length human BTK = full-length human BTK (Homo sapiens (Human), UniProt Q06187); experiment: Assay A: microfluidic off-chip mobility shift assay against BTK enzyme; format: biochemical
[1] = target: BTK C481S (His-TEV-hsBTK(328-659)(C481S)) (Homo sapiens (Human), UniProt Q06187, C481S); experiment: Assay B: microfluidic off-chip mobility shift assay against BTK C481S enzyme; format: biochemical; conditions: BTK C481S mutant
Procedure, shortened: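 Substrate-to-phosphopeptide conversion quantified by microfluidic mobility shift with laser-induced fluorescence; IC50 and efficacy from log[inhibitor] vs. % activity.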

[2] = system: anti-IgM-induced expression of CD69 on CD19 positive cells (B cells) in human PBMCs; experiment: Assay C: PBMC IC50 assay (anti-IgM-induced CD69 expression); format: cell-based; conditions: anti-IgM stimulation
Experimental: Btk is critical for mediating the signalling of B cell antigen receptor (BCR) after anti-IgM stimulation. Based on this principle, a functional cell-based assay was established to determine the potency of compounds at inhibiting anti-IgM-induced expression of CD69, a downstream BCR signaling event, in freshly isolated human peripheral blood mononuclear cells (PBMCs). In the assay, a 90 μl PBMC suspension containing 2.5×10^5 cells was pre-treated with 10 μl of test compound at various concentrations for an hour, and then incubated overnight (approximately 16-18 hours) with 5 μl 420 μg/ml affiniPure F(ab′)2 fragment goat anti-human IgM Fc fragment per well (Dianova, Cat. No.: 109-006-129). After the incubation, the cells were washed and immunostained with an APC-labeled mouse anti-human CD69 (BD Biosciences; clone: FN50), a PerCP-Cy5.5 labelled mouse anti-human CD19 (BD Biosciences; clone: SJ25C1) and a FITC-labelled mouse anti-human CD3 (BD Biosciences; clone: HIT3a), and fixed for flow cytometric analysis of CD69 expression on CD19 positive cells (B cells). The percentage of CD69 expressing CD19 positive cells was plotted against the concentrations of test compounds to obtain a concentration response curve, and calculate an IC50 value as a measure of the potency of test compounds in the assay.

full-length human BTK, sequence (Q06187 whole entry): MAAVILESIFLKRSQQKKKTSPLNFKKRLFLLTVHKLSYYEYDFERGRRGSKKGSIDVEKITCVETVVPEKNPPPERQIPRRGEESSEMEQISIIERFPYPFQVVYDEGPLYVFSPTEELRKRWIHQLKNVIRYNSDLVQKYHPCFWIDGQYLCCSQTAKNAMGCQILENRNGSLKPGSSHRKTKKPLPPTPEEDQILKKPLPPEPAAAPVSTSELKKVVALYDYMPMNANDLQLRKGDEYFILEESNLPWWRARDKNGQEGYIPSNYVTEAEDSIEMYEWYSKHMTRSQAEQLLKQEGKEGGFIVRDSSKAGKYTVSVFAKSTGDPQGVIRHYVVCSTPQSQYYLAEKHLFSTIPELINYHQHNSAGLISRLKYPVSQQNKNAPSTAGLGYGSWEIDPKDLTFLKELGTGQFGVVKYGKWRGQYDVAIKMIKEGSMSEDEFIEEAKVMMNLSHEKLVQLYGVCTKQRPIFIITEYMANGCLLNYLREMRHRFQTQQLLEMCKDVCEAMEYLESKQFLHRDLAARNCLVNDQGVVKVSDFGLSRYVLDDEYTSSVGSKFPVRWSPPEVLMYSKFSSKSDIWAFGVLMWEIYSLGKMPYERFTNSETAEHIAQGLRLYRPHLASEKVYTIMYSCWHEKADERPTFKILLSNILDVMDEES
BTK C481S (His-TEV-hsBTK(328-659)(C481S)), sequence (Q06187 328-659 C481S): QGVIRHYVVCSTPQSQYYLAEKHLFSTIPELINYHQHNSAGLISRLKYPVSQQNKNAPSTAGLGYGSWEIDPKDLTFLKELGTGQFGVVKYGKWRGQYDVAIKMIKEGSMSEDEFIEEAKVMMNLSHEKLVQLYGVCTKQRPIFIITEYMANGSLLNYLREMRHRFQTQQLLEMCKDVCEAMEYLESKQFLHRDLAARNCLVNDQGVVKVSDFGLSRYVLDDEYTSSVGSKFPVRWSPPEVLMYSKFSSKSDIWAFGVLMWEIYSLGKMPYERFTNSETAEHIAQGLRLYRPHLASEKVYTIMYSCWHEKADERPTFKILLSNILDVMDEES

Row | SMILES | IC50 (full-length human BTK) | IC50 [1] | IC50 [2]
1 | Cn1cc(-c2nc3c(-c4cccc(NC(=O)N5CC(OC(C)(C)C)C5)c4CO)ccnc3[nH]2)cn1 [Example 91, 3-(tert-Butoxy)-N-[2-(hydroxymethyl)-3-[2-(1-methyl-1H-pyrazol-4-yl)-3H-imidazo[4,5-b]pyridin-7-yl]phenyl]azetidine-1-carboxamide] | < 100 nM | < 100 nM | 100 to 1000 nM
2 | CC(C)(C)c1nc(C(=O)NCc2ccc(-c3ccnc4[nH]c(C5CC5)nc34)cc2F)no1 [Example 27, 5-tert-Butyl-[1,2,4]oxadiazole-3-carboxylic acid 4-(2-cyclopropyl-3H-imidazo[4,5-b]pyridin-7-yl)-2-fluoro-benzylamide] | < 100 nM | < 100 nM | 1000 to 5000 nM
3 | CN(C)c1ccc(-c2nc3c(-c4cccc(N5CCOc6cc(C7CC7)cc(F)c6C5=O)c4CO)ccnc3[nH]2)cc1 [Example 39, 8-Cyclopropyl-4-(3-[2-[4-(dimethylamino)phenyl]-3H-imidazo[4,5-b]pyridin-7-yl]-2-(hydroxymethyl)phenyl)-6-fluoro-2,3,4,5-tetrahydro-1,4-benzoxazepin-5-one] | < 100 nM | < 100 nM | 1000 to 5000 nM
4 | CN1CCN(Cc2ccc(-c3nc4c(-c5cccc(N6CCOc7cc(C8CC8)cc(F)c7C6=O)c5CO)ccnc4[nH]3)nc2)CC1 [Example 35, 8-Cyclopropyl-6-fluoro-4-[2-(hydroxymethyl)-3-(2-[5-[(4-methylpiperazin-1-yl)methyl]pyridin-2-yl]-3H-imidazo[4,5-b]pyridin-7-yl)phenyl]-2,3,4,5-tetrahydro-1,4-benzoxazepin-5-one] | < 100 nM | < 100 nM | 100 to 1000 nM
5 | Cn1cc(-c2nc3c(-c4ccc(CNC(=O)CCCC5CCCC5)c(F)c4)ccnc3[nH]2)cn1 [Example 16, 4-Cyclopentyl-N-{2-fluoro-4-[2-(1-methyl-1H-pyrazol-4-yl)-3H-imidazo[4,5-b]pyridin-7-yl]-benzyl}-butyramide] | < 100 nM | < 100 nM | > 5000 nM
6 | COc1ccc(-c2nc3c(-c4ccc(CNC(=O)c5ccc(C6CC6)cc5)c(F)c4)ccnc3[nH]2)cc1 [Example 63, 4-Cyclopropyl-N-([2-fluoro-4-[2-(4-methoxyphenyl)-3H-imidazo[4,5-b]pyridin-7-yl]phenyl]methyl) benzamide] | < 100 nM | < 100 nM | 1000 to 5000 nM
7 | Cn1cc(-c2nc3c(-c4ccc(CNC(=O)CCCC(C)(C)C)c(F)c4)ccnc3[nH]2)cn1 [Example 14, 5,5-Dimethyl-hexanoic acid 2-fluoro-4-[2-(1-methyl-1H-pyrazol-4-yl)-3H-imidazo[4,5-b]pyridin-7-yl]-benzylamide] | < 100 nM | < 100 nM | 1000 to 5000 nM
8 | Cn1cc(-c2nc3c(-c4ccc(CNC(=O)c5noc(C(C)(C)N)n5)c(F)c4)ccnc3[nH]2)cn1 [Example 58, 5-(2-Aminopropan-2-yl)-N-([2-fluoro-4-[2-(1-methyl-1H-pyrazol-4-yl)-3H-imidazo[4,5-b]pyridin-7-yl]phenyl]methyl)-1,2,4-oxadiazole-3-carboxamide] | < 100 nM | < 100 nM | 1000 to 5000 nM
9 | Cn1cc(-c2nc3c(-c4ccc(CNC(=O)c5ccc(C6CC6)nc5)c(F)c4)ccnc3[nH]2)cn1 [Example 56, 6-Cyclopropyl-N-([2-fluoro-4-[2-(1-methyl-1H-pyrazol-4-yl)-3H-imidazo[4,5-b]pyridin-7-yl]phenyl]methyl)pyridine-3-carboxamide] | < 100 nM | < 100 nM | 1000 to 5000 nM
10 | Cn1cc(-c2nc3c(-c4ccc(C5(NC(=O)c6noc(C(C)(C)C)n6)CC5)cc4)ccnc3[nH]2)cn1 [Example 53, 5-tert-Butyl-N-(1-[4-[2-(1-methyl-1H-pyrazol-4-yl)-3H-imidazo[4,5-b]pyridin-7-yl]phenyl]cyclopropyl)-1,2,4-oxadiazole-3-carboxamide] | < 100 nM | < 100 nM | < 100 nM
11 | CN(C)c1ccc(-c2nc3c(-c4ccc(CNC(=O)N5CC(OC(C)(C)C)C5)c(F)c4)ccnc3[nH]2)nc1 [Example 90, 3-(tert-Butoxy)-N-[(4-[2-[5-(dimethylamino)pyridin-2-yl]-3H-imidazo[4,5-b]pyridin-7-yl]-2-fluorophenyl)methyl]azetidine-1-carboxamide] | < 100 nM | 100 to 1000 nM | 1000 to 5000 nM
12 | Cn1cc(-c2nc3nccc(-c4cccc(N5CCOc6cc(C7CC7)cc(F)c6C5=O)c4CO)c3[nH]2)cn1 [Example 42, 8-Cyclopropyl-6-fluoro-4-[2-(hydroxymethyl)-3-[2-(1-methyl-1H-pyrazol-4-yl)-1H-imidazo[4,5-b]pyridine-7-yl]phenyl]-2,3,4,5-tetrahydro-1,4-benzoxazepin-5-one] | < 100 nM | < 100 nM | 100 to 1000 nM

The next lines start with results.

Row | IC50 (full-length human BTK) | IC50 [1] | SMILES | IC50 [2]
13 | < 100 nM | 100 to 1000 nM | CC(C)(C)c1nc(C(=O)NCc2ccc(-c3ccnc4[nH]c(-c5cnn(CCN)c5)nc34)cc2F)no1 [Example 72, N-[(4-[2-[1-(2-aminoethyl)-1H-pyrazol-4-yl]-3H-imidazo[4,5-b]pyridin-7-yl]-2-fluorophenyl)methyl]-5-tert-butyl-1,2,4-oxadiazole-3-carboxamide] | 100 to 1000 nM
14 | < 100 nM | < 100 nM | CCn1cc(-c2nc3c(-c4ccc(CNC(=O)c5cc6c(s5)CCCC6)c(F)c4)ccnc3[nH]2)cn1 [Example 130, 4,5,6,7-Tetrahydro-benzo[b]thiophene-2-carboxylic acid 4-[2-(1-ethyl-1H-pyrazol-4-yl)-3H-imidazo[4,5-b]pyridin-7-yl]-2-fluoro-benzylamide] | 100 to 1000 nM
15 | < 100 nM | < 100 nM | Cn1cc(-c2nc3c(-c4ccc(CNC(=O)c5ccc(C(C)(C)C)cc5)cc4)ccnc3[nH]2)cn1 [Example 110, 4-tert-Butyl-N-{4-[2-(1-methyl-1H-pyrazol-4-yl)-3H-imidazo[4,5-b]pyridin-7-yl]-benzyl}-benzamide] | 100 to 1000 nM
16 | < 100 nM | < 100 nM | CN1CC=C(c2ccc(-c3nc4c(-c5ccc(CNC(=O)c6noc(C(C)(C)C)n6)c(F)c5)ccnc4[nH]3)cc2)CC1 [Example 86, 5-tert-Butyl-N-[(2-fluoro-4-[2-[4-(1-methyl-1,2,3,6-tetrahydropyridin-4-yl)phenyl]-3H-imidazo[4,5-b]pyridin-7-yl]phenyl)methyl]-1,2,4-oxadiazole-3-carboxamide; Trifluoroacetic Acid] | < 100 nM
17 | < 100 nM | < 100 nM | Cn1cc(-c2nc3c(-c4ccc(C(C)(C)NC(=O)c5nnc(C(C)(C)C)o5)c(F)c4)ccnc3[nH]2)cn1 [Example 104, 5-tert-Butyl-[1,3,4]oxadiazole-2-carboxylic acid (1-{2-fluoro-4-[2-(1-methyl-1H-pyrazol-4-yl)-3H-imidazo[4,5-b]pyridin-7-yl]-phenyl}-1-methyl-ethyl)-amide] | 1000 to 5000 nM
18 | < 100 nM | < 100 nM | CC(C)(C)c1nnc(C(=O)NCc2ccc(-c3ccnc4[nH]c(C5=CCNCC5)nc34)cc2F)o1 [Example 140, 5-tert-Butyl-[1,3,4]oxadiazole-2-carboxylic acid 2-fluoro-4-[2-(1,2,3,6-tetrahydro-pyridin-4-yl)-3H-imidazo[4,5-b]pyridin-7-yl]-benzylamide] | 1000 to 5000 nM
19 | < 100 nM | < 100 nM | Cn1cc(-c2nc3c(-c4ccc(C5(NC(=O)c6ccc(C(C)(C)C)cc6)CC5)cc4)ccnc3[nH]2)cn1 [Example 113, 4-tert-Butyl-N-(1-{4-[2-(1-methyl-1H-pyrazol-4-yl)-3H-imidazo[4,5-b]pyridin-7-yl]-phenyl}-cyclopropyl)-benzamide] | 100 to 1000 nM
20 | < 100 nM | < 100 nM | Cc1cc(CNC(=O)c2noc(C(C)(C)C)n2)c(F)cc1-c1ccnc2[nH]c(-c3cnn(C)c3)nc12 [Example 77, 5-tert-butyl-N-([2-fluoro-5-methyl-4-[2-(1-methyl-1H-pyrazol-4-yl)-3H-imidazo[4,5-b]pyridin-7-yl]phenyl]methyl)-1,2,4-oxadiazole-3-carboxamide] | 1000 to 5000 nM
21 | 100 to 1000 nM | 100 to 1000 nM | O=C(NCc1ccc(-c2ccnc3[nH]c(-c4cnn(CCN5CCOCC5)c4)nc23)cc1F)c1nnc(C2CCOCC2)o1 [Example 122, 5-(Tetrahydro-pyran-4-yl)-[1,3,4]oxadiazole-2-carboxylic acid 2-fluoro-4-{2-[1-(2-morpholin-4-yl-ethyl)-1H-pyrazol-4-yl]-3H-imidazo[4,5-b]pyridin-7-yl}-benzylamide] | > 5000 nM
22 | < 100 nM | < 100 nM | CN(C)c1ccc(-c2nc3c(-c4ccc(CNC(=O)c5noc(C(C)(C)C)n5)c(F)c4)ccnc3[nH]2)cc1 [Example 145, 5-(tert-butyl)-N-(4-(2-(4-(dimethylamino)phenyl)-3H-imidazo[4,5-b]pyridin-7-yl)-2-fluorobenzyl)-1,2,4-oxadiazole-3-carboxamide] | < 100 nM
